# Reference: patent publication US8653023B1, “Dual beneficial effect of dopamine enhancing and neuroprotective actions of PKC delta inhibitors for treatment of Parkinson's disease” (Iowa State University Research Foundation, Inc., priority 2006, dated 2014)
# Key:
# [1] = test system: dopaminergic N27 cells; conditions: cited from earlier work
# [2] = test system: primary mesencephalic dopaminergic neuronal cells; assay type: cell-based, mice; conditions: 10 μM MPP+ for 48 hrs
# Description: Primary mesencephalic neuronal cultures were prepared from the ventral mesencephalon of gestational 16-18-day-old mice embryos as described previously (Yang et al., 2004). Mesencephalic tissues were dissected and maintained in ice-cold Ca^2+-free HESS and then dissociated in HESS solution containing trypsin-EDTA (0.25%) for 20 min at 37° C. The dissociated cells were then plated at equal density (0.5×10^6 cells) in 30-mm-diameter tissue culture wells precoated with poly-D-lysine (1 mg/ml). Cultures were maintained in a chemically defined medium consisting of neurobasal medium fortified with B-27 supplements, L-glutamine (500 μM), penicillin (100 IU/ml), and streptomycin (100 μg/ml) (Life Technologies). The cells were maintained in a humidified CO2 incubator (5% CO2, 37° C.) for 24 hr and then treated with cytosine arabinoside (10 μM) for 24 hr to inhibit glial cell proliferation. Half of the culture medium was replaced every 2 days. Approximately 6-7-day-old cultures were used for experiments. […]
# After treatment, the primary mesencephalic neurons were fixed with 4% paraformaldehyde and processed for immunocytotochemical staining. […] Then the coverslips containing stained cells were washed with PBS, mounted on a slide, and viewed under a Nikon inverted fluorescence microscope (Model TE-2000U); images were captured with a SPOT digital camera (Diagnostic Instruments, Sterling Heights, Mich.).
# We used Metamorph software (Universal Imaging, Version 5.0) for measurement of TH^+ cells and neuronal processes in primary neurons from each coverslip. For measurement of TH cell count, the images were first thresholded, and then neuronal count and volume were measured using the Integrated Morphometry Analysis (IMA) function. The data were logged to an Excel spreadsheet with defined row and column positions and then analyzed. […] The data were exported to an Excel spreadsheet and analyzed. TH^+ neurons and their processes were counted in at least six individual cultures for each treatment. This method is a modified version of methodology recently used for quantification of neuronal processes.
# [3] = test system: MPTP-treated C57 black mice; assay: MPTP-induced striatal dopamine depletion (HPLC-EC); assay type: in vivo; conditions: MPTP 30 mg/kg for 5 days alone
# Description: (§1) Six to 8-week-old […] mice weighing 30 g were housed in standard conditions: constant temperature (22±1° C.), humidity (relative, 30%) and a 12-h light/dark cycle, and were allowed free access to food and water. The animals and protocol procedures were approved and supervised by the Committee on Animal Care (COAC) at the Iowa State University. Rottlerin was dissolved in 1% dimethyl sulfoxide (DMSO) and was administered intraperitoneally at various doses. An equal volume of DMSO was given to controls. Rottlerin and DMSO administrations were started 24 h before the injections of the MPTP and continued for 5 days in the MPTP model. In the chronic regimens of MPTP administration, MPTP in phosphate-buffered saline (PBS) was injected intraperitoneally at doses of 30 mg/kg, once a day. Mice were sacrificed 2 days after the MPTP injections, and the striata were dissected for catecholamine analysis. Additionally, rottlerin alone (0.3-20 mg/kg) was administered via intraperitoneally or orally and then brain tissues were subjected to neurochemical analyses (FIG. 8). The mesencephalons were fixed in 4% paraformaldehyde for 5 days for tyrosine hydroxylase (TH) immunostaining.
# DA and DOPAC levels in brain striatal tissues were determined by high-performance liquid chromatography with electrochemical detection (HPLC-EC); samples were prepared as described previously (Kitazawa, Anantharam et al. 2001). Briefly, neurotransmitters were extracted from samples using 0.1M perchloric acid containing 0.05% Na2EDTA and 0.1% Na2S2O5. The extracts were filtered in 0.22 micron spin tubes and 20 μl of the samples was loaded for analysis. DA and DOPAC were separated isocratically by a reversed-phase column with a flow rate of 0.7 ml/min. An HPLC system (ESA Inc., Bedford, Mass.) with an ESA automatic sampler (model 542) was used for these experiments. The electrochemical detection (EC) system consisted of an ESA coulochem model 5100A with a microanalysis cell model 5014A and a guard cell model 5020 (ESA Inc., Bedford, Mass.). The DA and DOPAC levels were measured as pg/mg protein and expressed as percent of control.
# [4] = test system: MPTP-treated C57 black mice; assay: TH+ neuron count in substantia nigra pars compacta of MPTP mice (stereology); assay type: in vivo; conditions: MPTP 30 mg/kg for 5 continuous days
# Description: as §1
# Brains removed following cervical dislocation were post-fixed in paraformaldehyde and used for TH immunolabelling and stereological studies. Fixed brains were cut into 30-μm sections and collected in cryoprotectant. Sections were rinsed in PBS at room temperature before immunostaining, then incubated with a anti-TH antibody as described (Thiruchelvam, McCormack et al. 2003; Thiruchelvam, Powers et al. 2004). The total number of TH^+ and TH Nissl-stained neurons in the SNpc were counted using the optical fractionator and previously described counting criteria (Thiruchelvam, McCormack et al. 2003; Thiruchelvam, Powers et al. 2004). After delineation of the region at low magnification (4× objective), every fourth section from the entire substantia nigra was sampled at higher magnification (100× objective) using StereoImager (Microbrightfield, Vt.).
# [5] = test system: MPTP-treated C57 black mice; assay: Locomotor activity of MPTP-treated mice (VersaMax); assay type: in vivo; conditions: MPTP treatment alone, 1 day after treatment, 20-min session
# Excerpt: Behavioral data were collected using VersaMax Animal Activity Monitors (AccuScan Model RXYZCM-16, Columbus, Ohio). Each chamber was 40×40×30.5 cm^3, made of clear Plexiglas and covered with a Plexiglas lid with air-holes. Infrared monitoring sensors were located every 2.54 cm along the perimeter (16 infrared beams along each side) and 2.5 cm above the floor. Two additional sets of 16 sensors were located 8.0 cm above the floor on opposite sides. Data were collected and analyzed by a VersaMax Analyzer (AccuScan Model CDA-8, Columbus, Ohio) which in turn sent information to an IBM computer where it was stored for future analyses. Locomotor activity was presented as horizontal movement and vertical movement. All data are expressed as percent of the vehicle-treated control group (mean 6 SEM) and were obtained 1 day after MPTP or vehicle treatment in a 20-min test session.
# [6] = test system: tyrosine hydroxylase (TH); assay: TH activity (DOPA levels after NSD-1015) in N27 cells; assay type: cell-based, rat; conditions: okadaic acid 2 μM for 2 hr
# Description: Plasmid pPKCδ^K376R-V5 encodes the loss of function PKCδ-V5 epitope tagged mutant protein; K376R refers to the mutation of the lysine residue at position 376 to arginine in the catalytic site resulting in inactivation of the kinase. Plasmid pLacZ-V5 encodes the β-galactosidase protein alone with a V5-epitope and is used as a vector control. N27 cells stably expressing PKCδ^K376R-V5 (herein referred to as PKCδ-DN cells) and LacZ alone-expressing cells (LacZ cells) were cultured as described previously (Kitazawa et al., 2005). PKCδ-DN or LacZ expressing N27 cells were identified by immunostaining of the C-terminal V5 epitope on expressed proteins and were differentiated with cAMP analogs (e.g. dibutyral cAMP) prior to experiments. PKCδ-DN and LacZ were also transiently expressed in mouse primary mesencephalic neurons using an AMAXA® Nucleofector™ kit (AMAXA GmbH, Germany). As described above, primary mesencephalic neurons were prepared from the midbrain of 16-18-day-old mice embryos. After digestion with trypsin-EDTA-HBSS, the primary neurons were homogenously resuspended with transfection buffer provided with the kit to a final concentration of 4-5×10^6 neurons/100 μl and mixed with 1 μg plasmid DNA encoding either PKCδ-DN-V5 or LacZ-V5. […] Transfection efficiency was >75% as determined by immunostaining of V5-expression. […]
# [7] = test system: tyrosine hydroxylase (TH); assay: TH phosphorylation in N27 cells (Western blot, immunofluorescence); assay type: cell-based, rat
# Description: (§2) PC12 cells, differentiated N27 dopaminergic cells and primary mesencephalic neurons were exposed to 1-10 μM rottlerin for the duration of the experiment. DMSO (0.01%) was used as vehicle control. PKCδ-DN- and Lac Z-expressing N27 cells were only treated with 0.01% DMSO. […] Untreated or vehicle treated cells were used as control samples.
# (§3) Cell and brain lysates containing equal amounts of protein were loaded in each lane and separated on a 10-12% SDS-PAGE gel as described previously (Kaul et al., 2003). After the separation, proteins were transferred to nitrocellulose membrane, and nonspecific binding sites were blocked by treating with 5% nonfat dry milk powder. The membranes were then treated with primary antibodies directed against PKCδ (rabbit polyclonal or mouse monoclonal, 1:2000 dilution), TH (rabbit polyclonal or mouse monoclonal, 1:1000), phospho TH-ser40 (rabbit polyclonal, 1:1000), phospho TH-ser31 TH (rabbit polyclonal, 1:1000), or PP2A (mouse monoclonal, 1:1000). The primary antibody treatments were followed by treatment with secondary HRP-conjugated anti-rabbit or anti-mouse IgG (1:2000) for 1 hr at RT. Secondary antibody-bound proteins were detected using Amersham's ECL chemiluminescence kit. To confirm equal protein loading, blots were reprobed with a β-actin antibody (1:5000 dilution). Western blot images were captured with a Kodak 2000 MM imaging system and data were analyzed using 1D Kodak imaging analysis software.
# Immunostaining of PKCδ, TH, Ser40 P-TH and Ser31 P-TH was performed in PC12, N27 and primary mesencephalic neurons. Cells were grown on poly-L-Lysine-coated glass cover slips. After treatment, the cells were fixed with 4% paraformaldehyde and processed for immunohistochemical staining. First, non-specific sites were blocked with 5% normal goat serum containing 0.4% BSA and 0.2% Triton-X 100 in PBS for 20 min. Cells were then incubated with antibodies directed against PKCδ (1:500 dilution), TH (1:500 dilution), and P-THSer40 (1:500 dilution) overnight at 4° C. followed by incubation with either Alexa 488-conjugated (green, 1:1000) or Cy3-conjugated (red, 1:1000) secondary antibody for 1 hr at RT. Secondary antibody treatments were followed by incubation with Hoechst 33342 (10 μg/ml) for 3 min at room temperature to stain the nucleus. Then the coverslips containing stained cells were washed with PBS, mounted on a slide, and viewed under a Nikon inverted fluorescence microscope (Model TE-2000U); images were captured with a SPOT digital camera (Diagnostic Instruments, Sterling Heights, Mich.).
# [8] = test system: N27 cells; assay: Cellular DA and DOPAC levels in N27 cells (HPLC-EC); assay type: cell-based, rat; conditions: siRNA-transfected N27 cells
# Description: as §2
# DA and DOPAC levels in PC12, N27 cells and in brain striatal tissues were determined by high-performance liquid chromatography with electrochemical detection (HPLC-EC); samples were prepared as described previously (Kitazawa et al., 2001). The DA and DOPAC levels were measured as pg/mg protein and expressed as percent of control.
# [9] = test system: PKCδ; assay: PKCδ expression in siRNA-transfected N27 cells (Western blot); assay type: cell-based, rat; conditions: vs siRNA-NS
# Description: Small interfering RNAs (siRNAs) were prepared by an in vitro transcription method as described previously (Yang et al., 2004). Cy-3 labeling of siRNA and transfections were carried out as described in a recent publication (Yang et al., 2004). We used the siRNA PKCδ-4 and non-specific siRNA (siRNA-NS) for this study.
# as §3, with “To confirm equal protein loading, blots were reprobed with a β-actin antibody (1:5000 dilution).” left out
# [10] = N27 cells, okadaic acid 2 μM for 2 hr
molecule,measurement,setting,value
O=c1c(-c2ccc(O)cc2)coc2cc(O)cc(O)c12 [genistein],"H2O2 and MPP+-induced apoptotic cell death (genistein: also PKCδ cleavage, kinase activation)",[1],dramatically inhibited
"C[n+]1ccc(-c2ccccc2)cc1 [MPP^+, 1-methyl-4-phenylpyridinium]",cell death and loss of neurites length of TH+ neurons,[2],90%
"CN1CC=C(c2ccccc2)CC1 [MPTP, 1-methyl-4-phenyl-1,2,3,6-tetrahydropyridine]",dopamine level in striatum,[3],14.49±3.77 pg DA/mg tissue weight
same,reduction of striatal dopamine versus vehicle,[3],−94%
same,cell loss in SNpc as compared to controls,[4],40%
same,locomotor activity compared to control group,[5],55.17%
C=C1[C@@H](O)[C@@H]2O[C@]3(CC[C@H](/C=C/[C@@H](C)[C@@H]4CC(C)=C[C@@]5(O[C@H](C[C@@](C)(O)C(=O)O)CC[C@H]5O)O4)O3)CC[C@H]2O[C@@H]1[C@@H](O)C[C@H](C)[C@H]1O[C@@]2(CCCCO2)CC[C@H]1C [okadaic acid],DOPA levels (TH activity),[6],1434±212.6 pg/10^6 cells/hr
same,baseline THser40 phosphorylation levels versus untreated cells,[7]; [10],increase
same,levels of total TH versus untreated cells,[7]; [10],similar
"PKCδ siRNA: siRNA PKCδ-4 directed against PKCδ; probably siRNA-d-4, SEQ ID NO:7 and 8 (chain 1 AACTGTTTGTGAATTTGCCTTCCTGTCTC; chain 2 AAAAGGCAAATTCACAAACAGCCTGTCTC; listed as DNA, chemistry not given here)",increase in DOPAC versus siRNA-NS,[8],71%
same,increase in the DA level versus siRNA-NS,[8],45%
same,"TH-Ser40 (60 kDa band) densitometry, increase versus siRNA-NS",[7]; siRNA-transfected N27 cells,2 fold
same,total TH levels versus siRNA-NS,[7]; siRNA-transfected N27 cells,similar
same,reduction in PKCδ expression,[9],55%
